Test results: paper PMC8151276, “An Integrated Approach toward NanoBRET Tracers for Analysis of GPCR Ligand Engagement” (Molecules, 2021)

Assays:
Format in all cases: binding
EDNRA = target: T1, EDNRA (Homo sapiens, UniProt P25101); assay: NanoBRET screen HiBiT-EDNRA in HEK293; settings: EDNRA
T1 construct: purchased Promega (in-house HiBiT-GPCR construct library, NanoBRET)
T1 sequence (P25101 21-427): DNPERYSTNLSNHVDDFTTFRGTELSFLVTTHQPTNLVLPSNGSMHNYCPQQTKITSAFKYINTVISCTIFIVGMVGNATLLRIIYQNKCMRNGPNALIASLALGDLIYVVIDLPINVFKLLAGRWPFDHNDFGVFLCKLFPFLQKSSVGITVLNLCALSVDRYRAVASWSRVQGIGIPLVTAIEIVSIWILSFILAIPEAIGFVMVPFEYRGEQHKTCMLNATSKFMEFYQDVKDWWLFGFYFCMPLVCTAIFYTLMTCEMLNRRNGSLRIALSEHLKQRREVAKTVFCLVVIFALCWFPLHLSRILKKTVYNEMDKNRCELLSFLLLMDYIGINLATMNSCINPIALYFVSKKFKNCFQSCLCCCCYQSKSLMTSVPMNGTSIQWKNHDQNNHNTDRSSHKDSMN
Description: (§1) Each tracer candidate was screened across the entire library of HiBiT-GPCR constructs using NanoBRET as the detection modality. As depicted in Figure 4A, the specificity of interactions was evaluated through decrease in BRET due to competitive displacement of a bound tracer by excess parental compound. Each tracer was analyzed for binding to each HiBiT-GPCR fusion in the absence and in the presence of competing parental compound. Briefly, HEK293 cells were transfected with HiBiT-GPCR constructs diluted into promoterless DNA to reduce expression and maximize translocation to the cell surface. Each tracer candidate was then screened at concentrations of 1 μM and 0.1 μM across cells expressing these fusions. Cells were treated for 1.5 h with tracer either alone or in the presence of 20 μM competing parental compound (i.e., control). BRET was measured upon addition of purified LgBiT and subsequent complementation with HiBiT genetically fused to a GPCR. The specificity of interactions was assessed through a decrease in BRET signal due to competitive displacement of the bound tracer. To further gauge the robustness of these interactions, the fold response over the control (i.e., BRETtracer/BRETcontrol) was calculated. We chose a 1.5-fold response, which translates to ≥7-fold signal over noise as the minimal threshold required to score an interaction as positive. […]. Below we highlight the screening results obtained for our exemplary fluorescent tracers based on Clozapine, Amitriptyline and AZD1283.
(§2) HiBiT-GPCR DNA constructs were diluted in 10 mM Tris pH 8 to a final concentration of 0.01 μg/μL, arrayed in 96-well plates and stored at −20 °C. For transfection, HEK293 cells were suspended in Opti-MEM (without phenol red) supplemented with 2% fetal bovine serum (Seradigm) and 100 units/mL penicillin–streptomycin (Gibco) at a final concentration of 220,000 cells/mL and dispensed into white 96-well plates at 90 μL/well. Subsequent transfections and screens were carried using an Agilent Bravo Automated Liquid Handling Platform. First, the 96-well HiBiT DNA arrays were diluted 25-fold in Opti-MEM (without serum or phenol red) to a final concentration of 0.0004 μg/μL and 20 μL of the diluted DNAs were transferred into new 96-well plates. Next, promoterless carrier DNA (1 μg/μL) was diluted 25-fold (0.04 μg/μL) and then dispensed into the diluted arrays at 20 μL/well. Following brief mixing, Viafect transfection reagent (Promega) diluted 16-fold into Opti-MEM was dispensed into the plates at 40 μL/well. After mixing by pipetting, plates were incubated for 10 min on the pipetting station deck. The DNA-transfection reagent complexes were then added to plates containing cells. To facilitate the screen, 10 μL of DNA-transfection reagent complexes were added in duplicates to the top 4 and bottom 4 rows, resulting in two identical 48-well arrays per plate. Plates with transfected cells were incubated for 18–20 h at 37 °C/5% CO2. A screen of each tracer across the entire library using two different concentrations requires duplicate plates of transfected cells. Depending on the number of tracers being screened, transfections can be scaled up using the same ratios. The next day, for each tracer, four 20× screening solutions in tracer dilution buffer (Promega) were prepared: two duplicates at final concentration of 20 μM and two duplicates at a final concentration of 2 μM. A competing unmodified compound was added to one of each duplicate at a final concentration of 400 μM. The four resulting solutions were diluted 4-fold in Opti-MEM without serum or phenol red to generate 5× solutions (5 µM and 0.5 µM tracer +/− 100 μM competing compound). To screen the library, a BioTek MultiFlo FX liquid dispenser was used to dispense 22.5 µL of tracer solution to the top 4 rows and 22.5 µL tracer + competing compound solution to the 4 bottom rows. Plates were briefly mixed on an orbital shaker and incubated for 1.5 h at room temperature. […]

HTR1D = target: T2, HTR1D (Homo sapiens, UniProt P28221); assay: NanoBRET screen HiBiT-HTR1D in HEK293; settings: HTR1D
T2 construct: purchased Promega (in-house HiBiT-GPCR construct library, NanoBRET)
T2 sequence (P28221 whole entry): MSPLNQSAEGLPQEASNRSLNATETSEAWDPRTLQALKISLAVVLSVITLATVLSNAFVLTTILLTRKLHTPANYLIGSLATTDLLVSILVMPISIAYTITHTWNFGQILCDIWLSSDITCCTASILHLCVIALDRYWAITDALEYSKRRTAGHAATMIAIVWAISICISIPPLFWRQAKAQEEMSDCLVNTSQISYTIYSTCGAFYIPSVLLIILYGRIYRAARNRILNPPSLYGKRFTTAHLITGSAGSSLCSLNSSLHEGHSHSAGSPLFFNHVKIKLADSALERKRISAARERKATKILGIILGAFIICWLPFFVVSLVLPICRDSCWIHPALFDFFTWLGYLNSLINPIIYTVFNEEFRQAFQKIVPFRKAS
Description: as §1, §2

F2R = target: T3, F2R (Homo sapiens, UniProt P25116); assay: NanoBRET screen HiBiT-F2R in HEK293; settings: F2R
T3 construct: purchased Promega (in-house HiBiT-GPCR construct library, NanoBRET)
T3 sequence (P25116 22-425): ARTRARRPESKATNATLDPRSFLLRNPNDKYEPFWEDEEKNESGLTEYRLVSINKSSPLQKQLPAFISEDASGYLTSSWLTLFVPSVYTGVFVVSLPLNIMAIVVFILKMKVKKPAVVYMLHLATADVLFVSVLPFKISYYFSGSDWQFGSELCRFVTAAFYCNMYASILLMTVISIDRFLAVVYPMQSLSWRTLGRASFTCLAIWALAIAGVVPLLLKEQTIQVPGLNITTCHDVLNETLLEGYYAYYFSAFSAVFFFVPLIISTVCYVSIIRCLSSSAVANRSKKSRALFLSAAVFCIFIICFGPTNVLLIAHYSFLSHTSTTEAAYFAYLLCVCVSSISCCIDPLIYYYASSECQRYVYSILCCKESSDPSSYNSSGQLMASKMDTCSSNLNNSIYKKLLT
Description: as §1, §2

SSTR2 = target: T4, SSTR2 (Homo sapiens, UniProt P30874); assay: NanoBRET screen HiBiT-SSTR2 in HEK293; settings: SSTR2
T4 construct: purchased Promega (in-house HiBiT-GPCR construct library, NanoBRET)
T4 sequence (P30874 whole entry): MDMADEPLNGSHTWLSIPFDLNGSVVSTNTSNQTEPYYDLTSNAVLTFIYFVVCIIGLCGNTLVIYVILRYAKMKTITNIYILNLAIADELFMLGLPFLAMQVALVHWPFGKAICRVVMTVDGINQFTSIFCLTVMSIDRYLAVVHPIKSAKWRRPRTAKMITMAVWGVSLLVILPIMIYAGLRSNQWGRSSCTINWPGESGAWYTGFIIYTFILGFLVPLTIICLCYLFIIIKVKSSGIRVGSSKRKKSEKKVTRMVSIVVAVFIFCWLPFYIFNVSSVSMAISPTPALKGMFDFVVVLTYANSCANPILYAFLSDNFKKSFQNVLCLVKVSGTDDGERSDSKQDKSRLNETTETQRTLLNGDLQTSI
Description: as §1, §2

NPBWR1 = target: T5, NPBWR1 (Homo sapiens, UniProt P48145); assay: NanoBRET screen HiBiT-NPBWR1 in HEK293; settings: NPBWR1
T5 construct: purchased Promega (in-house HiBiT-GPCR construct library, NanoBRET)
T5 sequence (P48145 1-328): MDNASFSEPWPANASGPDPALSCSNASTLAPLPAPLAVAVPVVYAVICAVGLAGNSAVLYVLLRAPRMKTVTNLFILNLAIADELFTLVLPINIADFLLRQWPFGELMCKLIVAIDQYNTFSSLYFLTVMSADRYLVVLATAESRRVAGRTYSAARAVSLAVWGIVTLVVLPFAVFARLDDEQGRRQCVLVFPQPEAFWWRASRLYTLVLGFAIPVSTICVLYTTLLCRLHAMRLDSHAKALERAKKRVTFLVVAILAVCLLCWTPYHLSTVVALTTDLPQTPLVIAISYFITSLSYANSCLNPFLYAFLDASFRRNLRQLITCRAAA
Description: as §1, §2

| SMILES | NanoBRET Fold Response (EDNRA; tracer 0.1μM) | NanoBRET Fold Response (EDNRA; tracer 1μM) | NanoBRET Fold Response (HTR1D; tracer 0.1μM) | NanoBRET Fold Response (HTR1D; tracer 1μM) | NanoBRET Fold Response (F2R; tracer 0.1μM) | NanoBRET Fold Response (F2R; tracer 1μM) | NanoBRET Fold Response (SSTR2; tracer 0.1μM) | NanoBRET Fold Response (SSTR2; tracer 1μM) | NanoBRET Fold Response (NPBWR1; tracer 0.1μM) | NanoBRET Fold Response (NPBWR1; tracer 1μM) |
| --- | --- | --- | --- | --- | --- | --- | --- | --- | --- | --- |
| CC(C)N(CC[C@H](c1ccccc1)c1cc(CCNC(=O)CCOCCOCCOCCOCCNC(=O)CCc2ccc3n2[B-](F)(F)[N+]2=C(c4ccc[nH]4)C=CC2=C3)ccc1O)C(C)C [Tolterodine-2-NB590] | 0.94 | 1.01 | 1.35 | 0.68 | 1.20 | 1.03 | 1.04 | 1.00 | 1.26 | 0.94 |
| CC(C)N(CC[C@H](c1ccccc1)c1cc(CCNC(=O)c2ccc(CNC(=O)CCc3ccc4n3[B-](F)(F)[N+]3=C(c5ccc[nH]5)C=CC3=C4)cc2)ccc1O)C(C)C [Tolterodine-BZ-NB590] | 1.05 | 1.11 | 1.27 | 0.92 | 1.09 | 0.85 | 0.95 | 1.00 | 1.00 | 1.01 |
| CCCn1c(=O)c2[nH]c(-c3ccc(OCC(=O)NCCNC(=O)CCOCCNC(=O)c4ccc(CNC(=O)CCc5ccc6n5[B-](F)(F)[N+]5=C(c7ccc[nH]7)C=CC5=C6)cc4)cc3)nc2n(CCC)c1=O [XAC-3-NB590] | 1.12 | 1.15 | 0.47 | 0.65 | 1.20 | 0.80 | 0.97 | 1.06 | 1.03 | 0.96 |
